Measurements reported in ChEMBL document CHEMBL5576149, “Discovery of Potent STT3A/B Inhibitors and Assessment of Their Multipathogen Antiviral Potential and Safety” (J Med Chem, 2024).
≈ marks a conversion by molar mass, not a printed value. Calls of active or inactive are those of the source. No cut-off for these calls is given here.

Columns and labels:
[1] = Inhibition of STT3A/STT3B mediated N-linked glycosylation in human H1-HeLa cells stably transduced with ERluc by measuring effective concentration of inhibition incubated for 18 hrs by One-Glo luciferase reporter assay; format: cell-based
[2] = Chromatographic hydrophobicity index, logD of the compound at pH 7.4; format: physicochemical; conditions: buffer
[3] = Unbound clearance in rat liver microsomes at 0.5 uM incubated upto 45 mins; format: ADME, Microsome; conditions: 0.75 h
[4] = Solubility of compound in FaSSIF; format: ADME
[5] = Unbound clearance in Wistar Han rat at 2 mg/kg,po or 1 mg/kg,iv administrated upto 60 mins by LC-MS/MS analysis; format: ADME, organism-based; conditions: in vivo, 1 h
[6] = Volume of distribution at steady state in Wistar Han rat at 2 mg/kg,po or 1 mg/kg,iv administrated upto 60 mins by LC-MS/MS analysis; format: ADME, organism-based; conditions: in vivo, 1 h
[7] = MRT in Wistar Han rat at 2 mg/kg,po or 1 mg/kg,iv administrated upto 60 mins by LC-MS/MS analysis; format: ADME, organism-based; conditions: in vivo
[8] = Bioavailability in Wistar Han rat at 2 mg/kg,po or 1 mg/kg,iv administrated upto 60 mins by LC-MS/MS analysis; format: ADME, organism-based; conditions: in vivo
[9] = test system: Human respirovirus 3; experiment: Antiviral activity against Human parainfluenza virus 3 JS infected in human A549 cells assessed as reduction in viral proliferation incubated for 44 hrs by Hoechst dye based fluorescence analysis; format: functional, organism-based; conditions: Human respirovirus 3, JS, A549, 44 h
[10] = test system: Human coronavirus 229E; experiment: Antiviral activity against Human coronavirus 229E infected in human MRC5 cells assessed as reduction in viral growth incubated for 68 hrs by CellTiter-Glo luminescence assay; format: functional, organism-based; conditions: MRC5, 68 h
[11] = test system: SARS-CoV-2; experiment: Antiviral activity against SARS-CoV-2 infected in human A549 cells assessed as reduction in viral growth incubated for 24 hrs by Nano-Glo reagent based analysis; format: functional, organism-based; conditions: Severe acute respiratory syndrome coronavirus 2, A549, 24 h
[12] = Cytotoxicity against human Hepatocyte cultured as 3D spheroids incubated for 14 days by CellTiter-Glo luminescence assay; format: toxicity, cell-based; conditions: hepatocytes cultured as 3D spheroids
[13] = test system: A549; experiment: Cytotoxicity against human A549 cells by fluorescent cell imaging assay; format: functional
[14] = Cytotoxicity against human MRC5 cells by luminescence-based cell viability assay; format: toxicity
[15] = test system: HepG2; experiment: Selectivity ratio of apparent dissociation constant for binding affinity to STT3A in human HepG2 cells to apparent dissociation constant for binding affinity to STT3B in human HepG2 cells; format: cell-based
[16] = Unbound clearance in human liver microsomes at 0.5 uM incubated upto 45 mins; format: ADME, Microsome; conditions: 0.75 h
[17] = test system: A549; experiment: Cytotoxicity against human A549 cells; format: functional
[18] = Unbound clearance in CD1 mouse at 2 mg/kg,po or 1 mg/kg,iv administrated upto 60 mins by LC-MS/MS analysis; format: ADME, organism-based; conditions: in vivo, 1 h
[19] = Volume of distribution at steady state in CD1 mouse at 2 mg/kg,po or 1 mg/kg,iv administrated upto 60 mins by LC-MS/MS analysis; format: ADME, organism-based; conditions: in vivo, 1 h
[20] = MRT in CD1 mouse at 2 mg/kg,po or 1 mg/kg,iv administrated upto 60 mins by LC-MS/MS analysis; format: ADME, organism-based; conditions: in vivo
[21] = Bioavailability in CD1 mouse at 2 mg/kg,po or 1 mg/kg,iv administrated upto 60 mins by LC-MS/MS analysis; format: ADME, organism-based; conditions: in vivo
[22] = test system: Influenza A virus; experiment: Antiviral activity against influenza A virus H1N1 A/Puerto Rico/8/1934 infected in MDCK cells assessed as reduction in viral proliferation incubated for 24 hrs by FFU assay; format: functional, organism-based; conditions: H1N1 A/Puerto Rico/8/1934, MDCK
[23] = Inhibition of STT3A/STT3B mediated N-linked glycosylation in STT3A knockout human H1-HeLa cells stably transduced with Halo3N-ER sequence by measuring effective concentration incubated for 24 hrs by Western blotting analysis; format: cell-based
[24] = Inhibition of STT3A/STT3B mediated N-linked glycosylation in STT3B knockout human H1-HeLa cells stably transduced with Halo3N-ER sequence by measuring effective concentration incubated for 24 hrs by Western blotting analysis; format: cell-based
[25] = test system: Influenza A virus; experiment: Antiviral activity against influenza A virus H1N1 A/Puerto Rico/8/1934 infected in MDCK cells assessed as reduction in viral replication measured after 30 hrs of post-infection by RT-qPCR analysis relative to control; format: functional; parameters: scale not given: the % may be the effect or the level left
[26] = test system: Influenza A virus; experiment: Antiviral activity against influenza A virus H1N1 A/Puerto Rico/8/1934 infected in MDCK cells assessed as reduction in viral replication measured after 3 hrs of post-infection by RT-qPCR analysis relative to control; format: functional; parameters: scale not given: the % may be the effect or the level left
[27] = test system: H1-HeLa; experiment: Inhibition of STT3A/STT3B in human H1-HeLa cells assessed as upregulation of DERL3 gene expression incubated for 24 hrs; format: cell-based
[28] = test system: H1-HeLa; experiment: Inhibition of STT3A/STT3B in human H1-HeLa cells assessed as upregulation of SDF2L1 gene expression incubated for 24 hrs; format: cell-based
[29] = test system: H1-HeLa; experiment: Inhibition of STT3A/STT3B in human H1-HeLa cells assessed as upregulation of […] gene expression incubated for 24 hrs; format: cell-based
[30] = test system: H1-HeLa; experiment: Inhibition of STT3A/STT3B in human H1-HeLa cells assessed as upregulation of MANF gene expression incubated for 24 hrs; format: cell-based
[31] = Unbound clearance in mouse liver microsomes at 0.5 uM incubated upto 45 mins; format: ADME, Microsome; conditions: 0.75 h
[32] = Neurotoxicity in human iPSC cells co-cultured with human astrocyte assessed as inhibition of cell growth at 300 nM incubated for 48 hr by multi-electrode array analysis relative to control; format: toxicity, cell-based; conditions: ipsc, 48 h, 0.3 µM

Cc1cnc(NC(=O)c2cc(S(=O)(=O)N(C)C)ccc2N2CCCC2)s1
EC50 [1]: 0.589 µM
chromatographic logD [2]: 4.9
CL free [3]: ~ 2000 ml/min.kg
solubility [4]: < 0.001 mg/mL
CL free [5]: ~ 10000 ml/min.kg
Vdss [6]: 1.9 L/kg
MRT [7]: 18 min
bioavailability [8]: 0.6%
EC50 [9]: 0.379 µM
EC50 [10]: 1.36 µM
EC50 [11]: 1.36 µM
IC50 at 14 days [12]: 20 µM

CN(C)S(=O)(=O)c1ccc(N2CCCC2)c(-c2cc3cc(F)ccc3[nH]2)c1
EC50 [1]: 0.172 µM

Cc1ccc2cc(-c3cc(S(=O)(=O)N(C)CC(=O)NCCC4(CCNC(=O)O[C@@H]5CC/C=C/CCC5)N=N4)ccc3N3CCCC3)[nH]c2c1
EC50 [1]: 0.827 µM

CN(C)S(=O)(=O)c1ccc(N2CCCC2)c(-c2cc3cccnc3[nH]2)c1
EC50 [1]: 0.409 µM

CN(C)S(=O)(=O)c1cnc(N2CCCC2)c(-c2cc3ccccc3[nH]2)c1
EC50 [1]: 0.779 µM

Cc1ccc2cc(-c3cc(S(=O)(=O)N(C)CC(=O)N4CCOC[C@@H]4C)ccc3N3CCCC3)[nH]c2c1
EC50 [1]: 0.001 µM
EC50 [9]: 0.012 µM
EC50 [10]: 0.005 µM
CC50 [13]: 0.057 µM
CC50 [14]: 0.199 µM
Selectivity ratio [15]: 10

O=C([C@@H]1CCN1S(=O)(=O)c1ccc(N2CC[C@@H](O)C2)c(-c2cc3ccccc3[nH]2)c1)N1CCOCC1
EC50 [1]: 0.005 µM
chromatographic logD [2]: 3.5
CL free [16]: 54.2 L/h/kg
CL free [3]: 1998 mL/min/kg
EC50 [9]: 0.057 µM
EC50 [10]: 0.007 µM
EC50 [11]: 0.004 µM
CC50 [13]: 1.95 µM
CC50 [14]: 0.926 µM
CC50 [17]: 2 µM

CN(C)S(=O)(=O)c1ccc(N2CCC(F)(F)C2)c(-c2cc3ccccc3[nH]2)c1
EC50 [1]: 0.107 µM
chromatographic logD [2]: 6.6
CL free [16]: 31.6 L/h/kg
CL free [3]: 27713 mL/min/kg

CN(C)S(=O)(=O)c1ccc(N2CCCC2)c(C(=O)Nc2ccccc2)c1
EC50 [1]: 5.01 µM

CN(C)S(=O)(=O)c1ccc(N2CCCC2)c(C(=O)Nc2ncc(C3CC3)s2)c1
EC50 [1]: 0.332 µM

CN(C)S(=O)(=O)c1ccc(N2CCC2)c(-c2cc3ccccc3[nH]2)c1
EC50 [1]: 0.031 µM
chromatographic logD [2]: 6.5
CL free [16]: 7.02 L/h/kg
CL free [3]: 7395 mL/min/kg

CN(C)S(=O)(=O)c1ccc(N2CCCC2)c(-c2cc3ccccc3[nH]2)c1
EC50 [1]: 0.021 µM
chromatographic logD [2]: 7
CL free [16]: 18.2 L/h/kg
CL free [3]: 23136 mL/min/kg
solubility [4]: < 0.001 mg/mL
CL free [18]: 3688 L/h/kg
Vdss [19]: 6 L/kg
MRT [20]: 54 min
bioavailability [21]: 2%
CL free [5]: 102538 mL/min/kg
Vdss [6]: 5.7 L/kg
MRT [7]: 42 min
bioavailability [8]: 0%
EC50 [22]: 0.152 µM
EC50 [9]: 0.009 µM
EC50 [10]: 0.025 µM
EC50 [11]: 0.034 µM
CC50 [13]: 0.661 µM
CC50 [14]: 0.688 µM
CC50 [17]: 0.59 µM
EC50 [23]: 0.034 µM
EC50 [24]: 0.036 µM
Activity [25]: 60%
Activity [26]: >90%
inhibition [27]: Active
inhibition [28]: Active
inhibition [29]: Active
inhibition [30]: Active

CN(C)S(=O)(=O)c1ccc(N2CC[C@@H](O)C2)c(-c2cc3ccccc3[nH]2)c1
EC50 [1]: 0.513 µM
chromatographic logD [2]: 4.8
CL free [16]: 9.6 L/h/kg
CL free [3]: 1795 mL/min/kg
IC50 at 14 days [12]: 6.3 µM

CN(C)S(=O)(=O)c1ccc(N2CCCC2)c(-c2cc3ccc(F)cc3[nH]2)c1
EC50 [1]: 0.062 µM

CCS(=O)(=O)c1ccc(N2CC[C@H](O)C2)c(-c2cc3ccccc3[nH]2)c1
EC50 [1]: 0.036 µM
chromatographic logD [2]: 4.3
CL free [16]: < 1.14 L/h/kg
solubility [4]: 0.13 mg/mL (≈ 351 µM)
CL free [18]: 42.4 L/h/kg
Vdss [19]: 2.7 L/kg
MRT [20]: 84 min
bioavailability [21]: 33%
CL free [31]: < 2.94 L/h/kg
EC50 [22]: 0.307 µM
EC50 [10]: 0.058 µM
EC50 [11]: 0.116 µM
CC50 [14]: 4.11 µM
CC50 [17]: 3.8 µM

CN(C)S(=O)(=O)c1ccc(N2CCCC2)c(-c2cc3ccncc3[nH]2)c1
EC50 [1]: 0.394 µM

O=C([C@H]1CCN1S(=O)(=O)c1ccc(N2CCC(F)(F)C2)c(-c2cc3ccccc3[nH]2)c1)N1CCOCC1
EC50 [1]: 0.615 µM
chromatographic logD [2]: 5.3
CL free [3]: 3480 mL/min/kg
IC50 at 14 days [12]: 2.5 µM

CN(C)S(=O)(=O)c1ccc(N2CCCC2)c(-c2nc3ccccc3[nH]2)c1
EC50 [1]: 4.42 µM

Cc1ccc2[nH]c(-c3cc(S(=O)(=O)N(C)C)ccc3N3CCCC3)cc2c1
EC50 [1]: 0.032 µM

Cc1ccc2cc(-c3cc(S(=O)(=O)N(C)CC(=O)N4CCOCC4)ccc3N3CCCC3)[nH]c2c1
EC50 [1]: 0.002 µM
EC50 [9]: 0.006 µM
EC50 [10]: 0.002 µM
EC50 [11]: 0.004 µM
CC50 [13]: 0.035 µM
CC50 [14]: 0.044 µM
CC50 [17]: 0.013 µM
Activity [25]: 60%
Activity [26]: >90%

CN(C)S(=O)(=O)c1ccc(N2CCCC2)c(C(=O)Nc2ccc(F)cc2)c1
EC50 [1]: 1.39 µM

C[S@](=N)(=O)c1ccc(N2CC[C@H](O)C2)c(-c2cc3ccccc3[nH]2)c1
EC50 [1]: 0.279 µM
chromatographic logD [2]: 2.7
CL free [16]: < 0.72 L/h/kg

CCCC(C)C1(CC)C(=O)NC(=O)NC1=O (stereo unspecified) [PENTOBARBITAL]
Activity [32]: Non-Toxic
